Assay results taken from patent US9434763B2, “Derivatives of pyridinone as inhibitors for tissue transglutaminase” (ZEDIRA GMBH, priority 2012, dated 2016).

Columns and labels:
TG1 (transglutaminase 1) = biological target: T1, TG1 (transglutaminase 1) (Homo sapiens, UniProt P22735); assay: Comparative transglutaminase selectivity assay with casein and dansylcadaverine as substrates: TG1; type: biochemical; conditions: casein as substrate
T1 construct: purchased Zedira T009
T1 sequence (P22735 1-817): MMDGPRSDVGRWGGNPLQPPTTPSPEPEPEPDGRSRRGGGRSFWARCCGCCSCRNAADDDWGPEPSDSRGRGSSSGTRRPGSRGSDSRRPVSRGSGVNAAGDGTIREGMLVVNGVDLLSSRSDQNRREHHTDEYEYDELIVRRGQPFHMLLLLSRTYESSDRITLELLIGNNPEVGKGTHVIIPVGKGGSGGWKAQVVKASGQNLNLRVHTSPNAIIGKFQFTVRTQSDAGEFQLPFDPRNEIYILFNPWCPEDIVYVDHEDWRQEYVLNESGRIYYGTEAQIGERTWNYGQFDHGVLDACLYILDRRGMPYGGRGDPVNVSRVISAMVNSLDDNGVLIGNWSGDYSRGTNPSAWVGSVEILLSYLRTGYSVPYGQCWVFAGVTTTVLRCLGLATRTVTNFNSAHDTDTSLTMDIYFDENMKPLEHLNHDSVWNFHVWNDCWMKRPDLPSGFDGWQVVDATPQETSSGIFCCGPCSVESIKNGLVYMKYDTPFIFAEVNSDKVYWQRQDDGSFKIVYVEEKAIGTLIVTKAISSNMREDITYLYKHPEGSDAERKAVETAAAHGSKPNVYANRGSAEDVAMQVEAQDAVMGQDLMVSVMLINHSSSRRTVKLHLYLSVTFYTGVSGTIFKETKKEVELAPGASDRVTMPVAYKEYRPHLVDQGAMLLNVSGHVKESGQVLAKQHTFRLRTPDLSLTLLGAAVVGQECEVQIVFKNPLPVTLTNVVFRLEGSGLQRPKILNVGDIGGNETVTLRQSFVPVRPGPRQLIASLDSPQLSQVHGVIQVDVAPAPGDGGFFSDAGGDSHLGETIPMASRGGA
Text: The comparative determination of different transglutaminases to determine the selectivity was made with casein and dansylcadaverine as substrates. Therefore, the kit T036 (Zedira, Darmstadt; Refs: Lorand et al, Anal Biochem, 1971, 44:221-31) as well as transglutaminase products T009 (transglutaminase 1), T012 (transglutaminase 3), T021 (transglutaminase 6) and T027 (plasma transglutaminase, factor XIII) are used. Therefore, two different IC50 values for the compounds are given.
The evaluation of the resulting enzyme activity is done using the slope of the straight line obtained by the increase in fluorescence.
To determine the non-inhibited enzyme activity, DMSO instead of inhibitor stock solution is used. IC50 values are determined by plotting the resulting enzyme activity against the logarithm of the inhibitor concentration. IC50 is defined as the concentration of inhibitor resulting in 50% of enzyme activity.
It should be noted that it was measured here against casein as substrate, which is why other apparent inhibition values (IC50 value) result.

[1] = system: CaCo2 (human colon carcinoma-cell line); assay: Cytotoxicity: metabolic activity, EZ4U-Assay, CaCo2; type: cell-based
Experimental: (§1) Huh 7 (human hepatome-cell line) and CaCo2 (human colon carcinoma-cell line) were seeded to 96 well plates in Dulbecco's Modified Eagle's Medium (DMEM)/10% fetal calf serum (FCS) and cultivated. The method is known to the skilled person.
(§2) After one hour the inhibitors A63 (ZED1227), A29 (ZED1098) and A61 (ZED1219) were added in the concentrations 0.1 μM to 1 μM. The determination of the proliferation was carried out using the Cell Proliferation ELISA, BrdU (Roche 11 647 229 001): 24 hours after incubation of the cells with the inhibitor BrdU was added. The colorimetric development of the test was made after further 48 hours according to manufacturer's information. The extinction was measured at 450 nm. For determination of the metabolic activity using the EZ4U-Assay (Biomedica B1-5000) the tetrazolium substrate was added to the cells 48 hours after addition of the inhibitor. The capacity for reaction of the cells was measured every hour over a period of 4 hours at 450 nm against a reference filter of 630 nm. DMEM without inhibitor was added as reference in both experiments, as positive control cycloheximide (2.5 μg/ml) and camptothecin (0.2 μg/ml).

[2] = system: Huh 7 (human hepatome-cell line); assay: Cytotoxicity: metabolic activity, EZ4U-Assay, Huh 7; type: cell-based
Experimental: as §1
as §2, with “After one hour the inhibitors A63 (ZED1227), A29 (ZED1098) and A61 (ZED1219) were added in the concentrations 0.1 μM to 1 μM.” left out

Work on `CCOC(=O)/C=C/CC[C@H](NC(=O)c1cncn1C)C(=O)Nc1cccn(CC(=O)NCCC(C)C)c1=O` [A19, (S,E)-Ethyl 7-(1-(2-(isopentylamino)-2-oxoethyl)-2-oxo-1,2-dihydropyridin-3-ylamino)-6-(1-methyl-1H-imidazole-5-carboxamido)-7-oxohept-2-enoate] yielded an IC50 (TG1 (transglutaminase 1)) of 96 µM.
In the case of `CCOC(=O)/C=C/CC[C@H](NC(C)=O)C(=O)Nc1cccn(CC(=O)NCCC(C)C)c1=O` [A7, (S,E)-Ethyl 6-acetamido-7-(1-(2-(isopentylamino)-2-oxoethyl)-2-oxo-1,2-dihydropyridin-3-ylamino)-7-oxohept-2-enoate], the IC50 (TG1 (transglutaminase 1)) is reported as 28.8 µM.
`COC(=O)/C=C/CC[C@H](NC(C)=O)C(=O)Nc1cccn(CC(=O)NCCC(C)C)c1=O` [A29, (S,E)-methyl 6-acetamido-7-(1-(2-(isopentylamino)-2-oxoethyl)-2-oxo-1,2-dihydropyridin-3-ylamino)-7-oxohept-2-enoate] was tested, and the IC50 (TG1 (transglutaminase 1)) was 28.1 µM, the “effect on metabolic activity (EZ4U)” value [1] was “no effect” and the “effect on metabolic activity (EZ4U)” value [2] was “no effect”.
`CCC(CC)CNC(=O)Cn1cccc(NC(=O)[C@H](CC/C=C/C(=O)OC)NC(C)=O)c1=O` [A79, (S,E)-Methyl 6-acetamido-7-(1-(2-(2-ethylbutylamino)-2-oxoethyl)-2-oxo-1,2-dihydropyridin-3-ylamino)-7-oxohept-2-enoate] gave an IC50 (TG1 (transglutaminase 1)) of 80.7 µM.
`CCOC(=O)/C=C/CC[C@H](NC(C)=O)C(=O)Nc1cccn(CC(=O)NCC(CC)CC)c1=O` [A62, (S,E)-Ethyl 6-acetamido-7-(1-(2-(2-ethylbutylamino)-2-oxoethyl)-2-oxo-1,2-dihydropyridin-3-ylamino)-7-oxohept-2-enoate] was tested, and the IC50 (TG1 (transglutaminase 1)) was 133 µM.
`CCOC(=O)/C=C/CC[C@H](NC(=O)c1cncn1C)C(=O)Nc1cccn(CC(=O)NCC(CC)CC)c1=O` [A58, (S,E)-Ethyl 7-(1-(2-(2-ethylbutylamino)-2-oxoethyl)-2-oxo-1,2-dihydropyridin-3-ylamino)-6-(1-methyl-1H-imidazole-5-carboxamido)-7-oxohept-2-enoate] showed an IC50 (TG1 (transglutaminase 1)) of 97.5 µM.
In the case of `CCOC(=O)/C=C/CC[C@H](NC(=O)c1cncn1C)C(=O)Nc1cccn(CC(=O)N[C@H](C(=O)O)[C@H](C)CC)c1=O` [A53, (2S,3R)-2-(2-(3-((S,E)-7-Ethoxy-2-(1-methyl-1H-imidazole-5-carboxamido)-7-oxohept-5-enamido)-2-oxopyridin-1(2H)-yl)acetamido)-3-methylpentanoic acid], the IC50 (TG1 (transglutaminase 1)) is reported as 68.9 µM.
`COC(=O)/C=C/CC[C@H](NC(C)=O)C(=O)Nc1cccn(CC(=O)N2CCC(C(F)(F)F)CC2)c1=O` [A65, (S,E)-Methyl 6-acetamido-7-oxo-7-(2-oxo-1-(2-oxo-2-(4-(trifluoromethyl)piperidin-1-yl)ethyl)-1,2-dihydropyridin-3-ylamino)hept-2-enoate] showed an IC50 (TG1 (transglutaminase 1)) of 120 µM.
`CCOC(=O)/C=C/CC[C@H](NC(C)=O)C(=O)Nc1cccn(CC(=O)NCCC(CC)CC)c1=O` [A42, (S,E)-ethyl 6-acetamido-7-(1-(2-(3-ethylpentylamino)-2-oxoethyl)-2-oxo-1,2-dihydropyridin-3-ylamino)-7-oxohept-2-enoate] showed an IC50 (TG1 (transglutaminase 1)) of 86 µM.
In the case of `CCOC(=O)/C=C/CC[C@H](NC(C)=O)C(=O)Nc1cccn(CC(=O)N[C@H](C(=O)OC)[C@H](C)CC)c1=O` [A35, (S,E)-ethyl 6-acetamido-7-(1-(2-((2S,3R)-1-methoxy-3-methyl-1-oxopentan-2-ylamino)-2-oxoethyl)-2-oxo-1,2-dihydropyridin-3-ylamino)-7-oxohept-2-enoate], the IC50 (TG1 (transglutaminase 1)) is reported as 87.1 µM.
With `CC[C@@H](C)[C@H](NC(=O)Cn1cccc(NC(=O)[C@H](CC/C=C/C(=O)OC)NC(=O)c2ccccc2)c1=O)C(=O)O` [A61, (2S,3R)-2-(2-(3-((S,E)-2-benzamido-7-methoxy-7-oxohept-5-enamido)-2-oxopyridin-1(2H)-yl)acetamido)-3-methylpentanoic acid] the IC50 (TG1 (transglutaminase 1)) was 15.3 µM, the “effect on metabolic activity (EZ4U)” value [1] was “no effect” and the “effect on metabolic activity (EZ4U)” value [2] was “no effect”.
In the case of `CCC(CC)CNC(=O)Cn1cccc(NC(=O)[C@H](CC/C=C/C(=O)OC)NC(=O)c2cncn2C)c1=O` [A63, (S,E)-Methyl 7-(1-(2-(2-ethylbutylamino)-2-oxoethyl)-2-oxo-1,2-dihydropyridin-3-ylamino)-6-(1-methyl-1H-imidazole-5-carboxamido)-7-oxohept-2-enoate], the IC50 (TG1 (transglutaminase 1)) is reported as 51.8 µM, the “effect on metabolic activity (EZ4U)” value [1] is reported as “no effect” and the “effect on metabolic activity (EZ4U)” value [2] is reported as “no effect”.
For `CCOC(=O)/C=C/CC[C@H](NC(=O)CCC(=O)O)C(=O)Nc1cccn(CC(=O)NCC(CC)CC)c1=O` [A30, (S,E)-4-(7-Ethoxy-1-(1-(2-(2-ethylbutylamino)-2-oxoethyl)-2-oxo-1,2-dihydropyridin-3-ylamino)-1,7-dioxohept-5-en-2-ylamino)-4-oxobutanoic acid], the IC50 (TG1 (transglutaminase 1)) was 113 µM.
`COC(=O)/C=C/CC[C@H](NC(C)=O)C(=O)Nc1cccn(CC(=O)N2CCCC(C)C2)c1=O` (stereo partly drawn) [A64, (6S,E)-Methyl 6-acetamido-7-(1-(2-(3-methylpipendin-1-yl)-2-oxoethyl)-2-oxo-1,2-dihydropyridin-3-ylamino)-7-oxohept-2-enoate] was tested, and the IC50 (TG1 (transglutaminase 1)) was 122 µM.
`CCOC(=O)/C=C/CC[C@H](NC(=O)c1ccccc1)C(=O)Nc1cccn(CC(=O)N[C@H](C(=O)O)[C@H](C)CC)c1=O` [A59, (2S,3R)-2-(2-(3-((S,E)-2-Benzamido-7-ethoxy-7-oxohept-5-enamido)-2-oxopyridin-1(2H)-yl)acetamido)-3-methylpentanoic acid] was tested, and the IC50 (TG1 (transglutaminase 1)) was 37.1 µM.
Work on `CC[C@@H](C)[C@H](NC(=O)Cn1cccc(NC(=O)[C@H](CC/C=C/C(=O)OC)NC(=O)c2cncn2C)c1=O)C(=O)O` [A60, (2S,3R)-2-(2-(3-((S,E)-7-Methoxy-2-(1-methyl-1H-imidazole-5-carboxamido)-7-oxohept-5-enamido)-2-oxopyridin-1(2H)-yl)acetamido)-3-methylpentanoic acid] yielded an IC50 (TG1 (transglutaminase 1)) of 31.1 µM.
Compound `CCOC(=O)/C=C/CC[C@H](NC(=O)CCC(=O)O)C(=O)Nc1cccn(CC(=O)NCCC(C)C)c1=O` [A24, (S,E)-4-(7-Ethoxy-1-(1-(2-(isopentylamino)-2-oxoethyl)-2-oxo-1,2-dihydropyridin-3-ylamino)-1,7-dioxohept-5-en-2-ylamino)-4-oxobutanoic acid] has an IC50 (TG1 (transglutaminase 1)) of 91.9 µM.
